Measurements as given in ChEMBL document CHEMBL1201862, “PubChem BioAssay data set” (2004).
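In this assay, cells in 96-well plates receive the compound at five concentrations for 48 hours. Endpoints are linearly interpolated between the surrounding concentrations. GI50: concentration for 50% inhibition of growth.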 Calls of active or inactive are those of the source. Cut-off read from the data, not from the text of the source: active = GI50 up to about 1.1 µM and inactive = higher.

Legend:
Assay in all cases: NCI tumour cell line growth inhibition, 48 h
TK-10 = system: TK-10
HOP-62 = system: HOP-62
NCI-H23 = system: NCI-H23
SW-620 = system: SW-620
HL-60 = system: HL-60
SF-539 = system: SF-539
NCI-H226 = system: NCI-H226
RPMI-8226 = system: RPMI-8226
HCT-15 = system: HCT-15
EKVX = system: EKVX
SNB-75 = system: SNB-75
SK-MEL-28 = system: SK-MEL-28
SK-MEL-2 = system: SK-MEL-2
SK-MEL-5 = system: SK-MEL-5
SN12C = system: SN12C
HCT-116 = system: HCT-116
HOP-92 = system: HOP-92
HT-29 = system: HT-29
SNB-19 = system: SNB-19
KM12 = system: KM12
786-0 = system: 786-0
COLO 205 = system: COLO 205
Malme-3M = system: Malme-3M
BT-549 = system: BT-549
MCF7 = system: MCF7
DU-145 = system: DU-145
A498 = system: A498
RXF 393 = system: RXF 393
OVCAR-3 = system: OVCAR-3
UACC-257 = system: UACC-257
SR = system: SR
ACHN = system: ACHN
A549 = system: A549
K562 = system: K562
SF-268 = system: SF-268
OVCAR-4 = system: OVCAR-4
NCI/ADR-RES = system: NCI/ADR-RES
MOLT-4 = system: MOLT-4
MDA-MB-435 = system: MDA-MB-435
OVCAR-5 = system: OVCAR-5
CAKI-1 = system: CAKI-1
MDA-N = system: MDA-N
SF-295 = system: SF-295
MDA-MB-231 = system: MDA-MB-231
Hs-578T = system: Hs-578T
NCI-H460 = system: NCI-H460
NCI-H522 = system: NCI-H522
CCRF-CEM = system: CCRF-CEM
LOX IMVI = system: LOX IMVI
IGROV-1 = system: IGROV-1
M14 = system: M14
SK-OV-3 = system: SK-OV-3
HCC 2998 = system: HCC 2998
PC-3 = system: PC-3
OVCAR-8 = system: OVCAR-8
T47D = system: T47D
UACC-62 = system: UACC-62
UO-31 = system: UO-31
U-251 = system: U-251

CCOc1cc(NC(C)=O)ccc1C(=O)NN1C(=O)CSC1c1ccccc1 (centres undefined)
GI50 (TK-10): 48.8 µM (inactive) | GI50 (HOP-62): > 100 µM (inactive) | GI50 (NCI-H23): 66.7 µM (inactive) | GI50 (SW-620): > 100 µM (inactive) | GI50 (HL-60): 33.5 µM (inactive) | GI50 (SF-539): > 100 µM (inactive) | GI50 (NCI-H226): > 100 µM (inactive) | GI50 (RPMI-8226): 26.1 µM (inactive) | GI50 (HCT-15): 60.3 µM | GI50 (EKVX): 91 µM (inactive) | GI50 (SNB-75): 95.3 µM (inactive) | GI50 (SK-MEL-28): > 100 µM (inactive) | GI50 (SK-MEL-2): > 100 µM (inactive) | GI50 (SK-MEL-5): 34.4 µM (inactive) | GI50 (SN12C): > 100 µM (inactive) | GI50 (HCT-116): > 100 µM (inactive) | GI50 (HOP-92): 42.5 µM (inactive) | GI50 (HT-29): > 100 µM (inactive) | GI50 (SNB-19): > 100 µM (inactive) | GI50 (KM12): 71.4 µM (inactive) | GI50 (786-0): > 100 µM (inactive) | GI50 (COLO 205): 75 µM (inactive) | GI50 (Malme-3M): 86.3 µM (inactive) | GI50 (BT-549): 34.9 µM (inactive) | GI50 (MCF7): 78.5 µM (inactive) | GI50 (DU-145): > 100 µM (inactive) | GI50 (A498): > 100 µM (inactive) | GI50 (RXF 393): 74.6 µM (inactive) | GI50 (OVCAR-3): 96.6 µM (inactive) | GI50 (UACC-257): 63.8 µM (inactive) | GI50 (SR): 9.86 µM (inactive) | GI50 (ACHN): > 100 µM (inactive) | GI50 (A549): 77.3 µM (inactive) | GI50 (K562): 28.8 µM (inactive) | GI50 (SF-268): > 100 µM (inactive) | GI50 (OVCAR-4): 84.1 µM (inactive) | GI50 (NCI/ADR-RES): 35.7 µM (inactive) | GI50 (MOLT-4): < 0.01 µM (active) | GI50 (MDA-MB-435): > 100 µM (inactive) | GI50 (OVCAR-5): > 100 µM (inactive) | GI50 (CAKI-1): > 100 µM (inactive) | GI50 (MDA-N): 84.9 µM (inactive) | GI50 (SF-295): 45.2 µM (inactive) | GI50 (MDA-MB-231): > 100 µM (inactive) | GI50 (Hs-578T): > 100 µM (inactive) | GI50 (NCI-H460): > 100 µM (inactive) | GI50 (NCI-H522): 43.2 µM (inactive) | GI50 (CCRF-CEM): 37.8 µM (inactive) | GI50 (LOX IMVI): > 100 µM (inactive) | GI50 (IGROV-1): > 100 µM (inactive) | GI50 (M14): > 100 µM (inactive) | GI50 (SK-OV-3): > 100 µM (inactive) | GI50 (HCC 2998): > 100 µM (inactive) | GI50 (PC-3): 78.7 µM (inactive) | GI50 (OVCAR-8): 48 µM (inactive) | GI50 (T47D): 25.7 µM (inactive) | GI50 (UACC-62): 52 µM (inactive) | GI50 (UO-31): 40.7 µM (inactive)

COc1ccc(N2CCOCC2)cc1
GI50 (TK-10): > 100 µM (inactive) | GI50 (HOP-62): > 100 µM (inactive) | GI50 (NCI-H23): > 100 µM (inactive) | GI50 (SW-620): > 100 µM (inactive) | GI50 (HL-60): > 100 µM (inactive) | GI50 (SF-539): > 100 µM (inactive) | GI50 (NCI-H226): > 100 µM (inactive) | GI50 (RPMI-8226): > 100 µM (inactive) | GI50 (HCT-15): > 100 µM | GI50 (EKVX): > 100 µM (inactive) | GI50 (SNB-75): > 100 µM (inactive) | GI50 (SK-MEL-28): > 100 µM (inactive) | GI50 (SK-MEL-2): > 100 µM (inactive) | GI50 (SK-MEL-5): > 100 µM (inactive) | GI50 (SN12C): > 100 µM (inactive) | GI50 (HCT-116): > 100 µM (inactive) | GI50 (HOP-92): > 100 µM (inactive) | GI50 (HT-29): > 100 µM (inactive) | GI50 (U-251): > 100 µM (inactive) | GI50 (SNB-19): > 100 µM (inactive) | GI50 (KM12): > 100 µM (inactive) | GI50 (786-0): > 100 µM (inactive) | GI50 (COLO 205): > 100 µM (inactive) | GI50 (Malme-3M): > 100 µM (inactive) | GI50 (BT-549): > 100 µM (inactive) | GI50 (MCF7): > 100 µM (inactive) | GI50 (DU-145): > 100 µM (inactive) | GI50 (A498): > 100 µM (inactive) | GI50 (RXF 393): > 100 µM (inactive) | GI50 (OVCAR-3): > 100 µM (inactive) | GI50 (UACC-257): > 100 µM (inactive) | GI50 (SR): > 100 µM (inactive) | GI50 (ACHN): > 100 µM (inactive) | GI50 (A549): > 100 µM (inactive) | GI50 (K562): > 100 µM (inactive) | GI50 (SF-268): > 100 µM (inactive) | GI50 (OVCAR-4): > 100 µM (inactive) | GI50 (NCI/ADR-RES): > 100 µM (inactive) | GI50 (MOLT-4): > 100 µM (inactive) | GI50 (MDA-MB-435): > 100 µM (inactive) | GI50 (OVCAR-5): > 100 µM (inactive) | GI50 (CAKI-1): > 100 µM (inactive) | GI50 (MDA-N): > 100 µM (inactive) | GI50 (SF-295): > 100 µM (inactive) | GI50 (MDA-MB-231): > 100 µM (inactive) | GI50 (Hs-578T): > 100 µM (inactive) | GI50 (NCI-H460): > 100 µM (inactive) | GI50 (NCI-H522): > 100 µM (inactive) | GI50 (CCRF-CEM): > 100 µM (inactive) | GI50 (IGROV-1): > 100 µM (inactive) | GI50 (M14): > 100 µM (inactive) | GI50 (SK-OV-3): > 100 µM (inactive) | GI50 (HCC 2998): > 100 µM (inactive) | GI50 (PC-3): > 100 µM (inactive) | GI50 (OVCAR-8): > 100 µM (inactive) | GI50 (T47D): > 100 µM (inactive) | GI50 (UACC-62): > 100 µM (inactive) | GI50 (UO-31): > 100 µM (inactive)

Fc1ccc(/N=C/C=C/Nc2ccc(F)cc2)cc1
GI50 (HOP-62): 17.7 µM (inactive) | GI50 (NCI-H23): 15 µM (inactive) | GI50 (SW-620): 3.32 µM (inactive) | GI50 (HL-60): 2.26 µM (inactive) | GI50 (SF-539): 14.1 µM (inactive) | GI50 (NCI-H226): 19.5 µM (inactive) | GI50 (RPMI-8226): 12.4 µM (inactive) | GI50 (HCT-15): 0.31 µM | GI50 (EKVX): 12.9 µM (inactive) | GI50 (SNB-75): 15 µM (inactive) | GI50 (SK-MEL-28): 7.5 µM (inactive) | GI50 (SK-MEL-2): 13.6 µM (inactive) | GI50 (SK-MEL-5): 4.84 µM (inactive) | GI50 (SN12C): 14 µM (inactive) | GI50 (HCT-116): 3 µM (inactive) | GI50 (HOP-92): 17.6 µM (inactive) | GI50 (HT-29): 5.35 µM (inactive) | GI50 (U-251): 7.41 µM (inactive) | GI50 (SNB-19): 13.3 µM (inactive) | GI50 (KM12): 3.31 µM (inactive) | GI50 (786-0): 4.3 µM (inactive) | GI50 (COLO 205): 1.55 µM (inactive) | GI50 (Malme-3M): 16.4 µM (inactive) | GI50 (BT-549): 14.1 µM (inactive) | GI50 (MCF7): 11.7 µM (inactive) | GI50 (DU-145): 13.5 µM (inactive) | GI50 (A498): 15.5 µM (inactive) | GI50 (RXF 393): 15.8 µM (inactive) | GI50 (OVCAR-3): 16 µM (inactive) | GI50 (UACC-257): 13.5 µM (inactive) | GI50 (SR): 2.44 µM (inactive) | GI50 (ACHN): 0.11 µM (active) | GI50 (A549): 8.67 µM (inactive) | GI50 (K562): 0.278 µM (active) | GI50 (SF-268): 13.4 µM (inactive) | GI50 (OVCAR-4): 15.3 µM (inactive) | GI50 (NCI/ADR-RES): 11.9 µM (inactive) | GI50 (MOLT-4): 12.9 µM (inactive) | GI50 (MDA-MB-435): 5.3 µM (inactive) | GI50 (OVCAR-5): 12.1 µM (inactive) | GI50 (CAKI-1): 12.7 µM (inactive) | GI50 (MDA-N): 2.75 µM (inactive) | GI50 (SF-295): 8.28 µM (inactive) | GI50 (MDA-MB-231): 15.8 µM (inactive) | GI50 (Hs-578T): 19.9 µM (inactive) | GI50 (NCI-H460): 6.19 µM (inactive) | GI50 (NCI-H522): 13.5 µM (inactive) | GI50 (CCRF-CEM): 4.67 µM (inactive) | GI50 (LOX IMVI): 0.817 µM (active) | GI50 (IGROV-1): 12.8 µM (inactive) | GI50 (M14): 0.137 µM (active) | GI50 (SK-OV-3): 15.3 µM (inactive) | GI50 (HCC 2998): 3.05 µM (inactive) | GI50 (PC-3): 8.91 µM (inactive) | GI50 (OVCAR-8): 12.9 µM (inactive) | GI50 (T47D): 6.37 µM (inactive) | GI50 (UACC-62): 0.509 µM (active) | GI50 (UO-31): 6.73 µM (inactive)
